These results are taken from paper PMC9310846, “Photoaffinity Capture Compounds to Profile the Magic Spot Nucleotide Interactomes” (Angewandte Chemie (International Ed. in English), 2022).

In series [1] the target is T1, ApaH (bis(5′‐nucleosyl)‐tetraphosphatase) (Escherichia coli, UniProt P05637).
T1 sequence (P05637 1-280): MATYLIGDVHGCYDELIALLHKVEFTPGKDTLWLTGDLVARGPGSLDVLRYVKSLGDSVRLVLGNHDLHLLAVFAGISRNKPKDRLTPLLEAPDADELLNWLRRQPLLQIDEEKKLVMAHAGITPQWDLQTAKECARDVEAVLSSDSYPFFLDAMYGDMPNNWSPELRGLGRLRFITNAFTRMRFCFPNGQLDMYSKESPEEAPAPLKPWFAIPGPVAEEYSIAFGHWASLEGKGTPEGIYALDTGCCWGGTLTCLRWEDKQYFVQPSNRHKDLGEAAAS
Briefly: LC-MS assay of Ap4A hydrolysis by […] ApaH; pppGpp is also hydrolysed to pGpp (KM […]). Format: biochemical.

Series [2] has as its target T1, ApaH (bis(5′‐nucleosyl)‐tetraphosphatase). As to the kind of experiment: LC-MS assay of Ap4A hydrolysis by […] ApaH. Format: biochemical.
For series [3] the target is unchanged. As to the kind of experiment: inhibition of Ap4A hydrolysis by ApaH; pGpp is also the product of pppGpp cleavage. Format: biochemical.
Substrate in the series “purified protein”: Nc1nc2c(ncn2[C@@H]2O[C@H](COP(=O)(O)OP(=O)(O)OP(=O)(O)O)[C@@H](O)[C@H]2O)c(=O)[nH]1
Briefly: purified protein. The series is classed as biochemical, Escherichia coli. Conditions: Co2+.

Take `Nc1nc2c(ncn2[C@@H]2O[C@H](COP(=O)(O)OP(=O)(O)OP(=O)(O)O)[C@@H](OP(=O)(O)OP(=O)(O)O)[C@H]2O)c(=O)[nH]1` [pppGpp]: the IC50 (usually the midpoint of a concentration-inhibition curve) in series [1] stood at 8 ± 3 µM.

Consider `Nc1nc2c(ncn2[C@@H]2O[C@H](COP(=O)(O)OP(=O)(O)O)[C@@H](OP(=O)(O)OP(=O)(O)O)[C@H]2O)c(=O)[nH]1` [ppGpp], for which the IC50 in series [2] amounted to 21 ± 7 µM.

`Nc1nc2c(ncn2[C@@H]2O[C@H](COP(=O)(O)O)[C@@H](OP(=O)(O)OP(=O)(O)O)[C@H]2O)c(=O)[nH]1` [pGpp] returned a half-maximal inhibitory concentration (IC50) in series [3] of 190 ± 30 µM.

B1: ApaH (bis(5′‐nucleosyl)‐tetraphosphatase) (Escherichia coli K-12) (protein)
chain: T1 sequence (P05637 1-280)
For the molecule B1, the Km (in general, the concentration of substrate that gives half-maximal velocity) in the series “purified protein” is 13 ± 5 µM.
